Values quoted from earlier work in patent US20260151341A1, “NOVEL AMORPHOUS ACTIVE PHARMACEUTICAL INGREDIENTS” (DISRUPTIVE PHARMA AB, priority 2020, published 2026).

Conditions: mesoporous silica, study referred to by Gupte et al.

CCC(C)n1ncn(-c2ccc(N3CCN(c4ccc(OCC5COC(Cn6cncn6)(c6ccc(Cl)cc6Cl)O5)cc4)CC3)cc2)c1=O (stereo not shown) [Itraconazole, itraconazole]
loading at which stabilized by silica: more than 32 % by weight
